According to ChEMBL document CHEMBL1138037, “Novel sst2-selective somatostatin agonists. Three-dimensional consensus structure by NMR” (J Med Chem, 2006):
Positions of bridges follow the written chain, without caps; N, C: chain ends. Non-standard residues stand in square brackets, D forms with d. Residues, ends and D or L forms follow the SMILES beside them.

Assays:
[1] = molecular target: Somatostatin receptor type 4 (Homo sapiens, UniProt P31391); assay: Inhibition of [125I](Leu8,DTrp22,Tyr25)-SRIF28 binding to human sst4
Sequence of Somatostatin receptor type 4 (P31391 whole entry): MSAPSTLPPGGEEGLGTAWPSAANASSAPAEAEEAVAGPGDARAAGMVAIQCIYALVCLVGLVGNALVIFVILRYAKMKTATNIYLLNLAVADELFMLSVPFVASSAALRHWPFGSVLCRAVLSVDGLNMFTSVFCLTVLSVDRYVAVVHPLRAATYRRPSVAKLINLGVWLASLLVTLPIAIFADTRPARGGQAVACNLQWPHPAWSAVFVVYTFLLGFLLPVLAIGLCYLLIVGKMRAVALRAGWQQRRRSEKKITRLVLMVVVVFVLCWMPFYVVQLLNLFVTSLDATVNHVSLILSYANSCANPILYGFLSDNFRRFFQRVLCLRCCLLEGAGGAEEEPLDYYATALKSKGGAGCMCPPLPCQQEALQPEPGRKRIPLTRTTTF

[2] = molecular target: Somatostatin receptor type 1 (Homo sapiens, UniProt P30872); assay: Inhibition of [125I](Leu8,DTrp22,Tyr25)-SRIF28 binding to human sst1
Sequence of Somatostatin receptor type 1 (P30872 whole entry): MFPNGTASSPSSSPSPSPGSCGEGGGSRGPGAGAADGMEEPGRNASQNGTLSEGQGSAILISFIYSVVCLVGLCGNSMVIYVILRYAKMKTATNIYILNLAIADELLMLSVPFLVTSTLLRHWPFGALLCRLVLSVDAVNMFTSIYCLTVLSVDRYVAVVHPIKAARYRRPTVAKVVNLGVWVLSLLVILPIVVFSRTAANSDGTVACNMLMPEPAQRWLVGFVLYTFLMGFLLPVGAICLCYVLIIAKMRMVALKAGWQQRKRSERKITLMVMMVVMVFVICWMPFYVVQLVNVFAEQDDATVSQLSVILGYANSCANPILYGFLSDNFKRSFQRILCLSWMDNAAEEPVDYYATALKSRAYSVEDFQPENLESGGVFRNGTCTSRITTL

[3] = molecular target: Somatostatin receptor type 5 (Homo sapiens, UniProt P35346); assay: Inhibition of [125I](Leu8,DTrp22,Tyr25)-SRIF28 binding to human sst5
Sequence of Somatostatin receptor type 5 (P35346 whole entry): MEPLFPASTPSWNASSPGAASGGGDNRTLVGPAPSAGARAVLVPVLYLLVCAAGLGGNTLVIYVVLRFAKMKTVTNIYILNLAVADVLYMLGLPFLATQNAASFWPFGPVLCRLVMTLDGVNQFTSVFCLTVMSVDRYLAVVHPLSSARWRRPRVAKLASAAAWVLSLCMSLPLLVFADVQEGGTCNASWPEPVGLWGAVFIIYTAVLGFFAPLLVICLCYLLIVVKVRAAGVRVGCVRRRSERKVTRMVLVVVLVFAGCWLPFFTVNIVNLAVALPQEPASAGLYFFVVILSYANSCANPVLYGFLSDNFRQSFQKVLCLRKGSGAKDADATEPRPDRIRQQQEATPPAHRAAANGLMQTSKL

[4] = molecular target: Somatostatin receptor type 2 (Homo sapiens, UniProt P30874); assay: Inhibition of [125I](Leu8,DTrp22,Tyr25)-SRIF28 binding to human sst2
Sequence of Somatostatin receptor type 2 (P30874 whole entry): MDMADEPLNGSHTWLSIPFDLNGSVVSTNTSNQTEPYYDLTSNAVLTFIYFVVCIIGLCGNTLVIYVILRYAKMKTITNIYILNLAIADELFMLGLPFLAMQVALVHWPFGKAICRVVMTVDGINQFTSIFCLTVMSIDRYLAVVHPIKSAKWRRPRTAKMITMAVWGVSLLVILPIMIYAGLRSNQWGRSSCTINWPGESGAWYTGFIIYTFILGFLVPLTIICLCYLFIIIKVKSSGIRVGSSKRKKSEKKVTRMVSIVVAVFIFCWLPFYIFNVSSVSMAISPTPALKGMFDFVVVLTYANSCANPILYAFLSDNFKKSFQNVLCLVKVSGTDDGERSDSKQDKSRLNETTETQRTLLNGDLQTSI

[5] = molecular target: Somatostatin receptor type 3 (Homo sapiens, UniProt P32745); assay: Inhibition of [125I](Leu8,DTrp22,Tyr25)-SRIF28 binding to human sst3
Sequence of Somatostatin receptor type 3 (P32745 whole entry): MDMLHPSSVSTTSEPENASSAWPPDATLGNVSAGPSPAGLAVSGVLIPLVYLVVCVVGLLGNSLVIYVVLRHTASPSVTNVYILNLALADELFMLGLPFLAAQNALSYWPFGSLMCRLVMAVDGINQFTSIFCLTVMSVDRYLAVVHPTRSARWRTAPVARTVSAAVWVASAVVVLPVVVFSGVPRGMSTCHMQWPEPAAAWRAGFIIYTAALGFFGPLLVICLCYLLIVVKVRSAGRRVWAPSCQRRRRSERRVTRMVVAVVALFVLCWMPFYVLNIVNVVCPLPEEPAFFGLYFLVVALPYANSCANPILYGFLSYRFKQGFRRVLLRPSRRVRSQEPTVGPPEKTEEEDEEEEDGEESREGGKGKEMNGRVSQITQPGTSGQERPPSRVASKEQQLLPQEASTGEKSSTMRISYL

| IC50 [1] | IC50 [2] | IC50 [3] | IC50 [4] | IC50 [5] | Structure (SMILES) |
| --- | --- | --- | --- | --- | --- |
| > 1 µM | > 1 µM | > 1 µM | 0.378 µM | > 1 µM | C[C@@H](O)[C@@H]1NC(=O)[C@H](CCCCN)NC(=O)[C@@H](Cc2c[nH]c3ccccc23)NC(=O)[C@H](Cc2ccccc2)NC(=O)[C@@H](N)CSSC[C@@H](C(=O)O)NC1=O (H-CF[dW]KTC-OH; disulfide 1-6) |
| > 1 µM | > 1 µM | 0.158 µM | 0.0036 µM | 0.543 µM | C[C@@H]1NC(=O)[C@@H](NC(=O)[C@H](N)Cc2ccccc2)CSSC[C@@H](C(=O)N[C@H](C(N)=O)[C@@H](C)O)NC(=O)[C@H]([C@@H](C)O)NC(=O)[C@H](CCCCN)NC(=O)[C@@H](Cc2c[nH]c3ccccc23)NC1=O |
| > 10 µM | > 1 µM | – | 0.0022 µM | 0.038 µM | C[C@@H](O)[C@H](NC(=O)[C@@H]1CSSC[C@H](NC(=O)[C@H](N)Cc2ccccc2)C(=O)N[C@@H](Cc2ccccc2)C(=O)N[C@H](Cc2c[nH]c3ccccc23)C(=O)N[C@@H](CCCCN)C(=O)N[C@@H]([C@@H](C)O)C(=O)N1)C(N)=O |

Second part, the molecule before the results:

| Structure (SMILES) | IC50 [1] | IC50 [2] | IC50 [3] | IC50 [4] | IC50 [5] |
| --- | --- | --- | --- | --- | --- |
| CONC(=O)Nc1ccc(C[C@@H]2NC(=O)[C@@H](NC(=O)[C@@H](Cc3ccccc3)NC(N)=O)CSSC[C@@H](C(=O)N[C@H](C(N)=O)[C@@H](C)O)NC(=O)[C@H]([C@@H](C)O)NC(=O)[C@H](CCCCN)NC(=O)[C@@H](Cc3c[nH]c4ccccc34)NC2=O)cc1 | > 1 µM | > 1 µM | 0.539 µM | 0.0031 µM | 0.958 µM |
| C[C@@H](O)[C@H](NC(=O)[C@@H]1CSSC[C@H](NC(=O)[C@H](Cc2ccccc2)NC(N)=O)C(=O)N[C@@H](Cc2ccc(NC(N)=O)cc2)C(=O)N[C@H](Cc2c[nH]c3ccccc23)C(=O)N[C@@H](CCCCN)C(=O)N[C@@H]([C@@H](C)O)C(=O)N1)C(N)=O | – | > 1 µM | 0.109 µM | 0.0075 µM | 0.942 µM |
| C[C@@H](O)[C@H](NC(=O)[C@@H]1CSSC[C@H](NC(=O)[C@@H](Cc2ccccc2)NC(N)=O)C(=O)N[C@@H](Cc2ccc(NC(N)=O)cc2)C(=O)N[C@H](Cc2c[nH]c3ccccc23)C(=O)N[C@@H](CCCCN)C(=O)N[C@@H]([C@@H](C)O)C(=O)N1)C(N)=O | – | > 1 µM | 0.077 µM | 0.0062 µM | 0.21 µM |
